Laboratory results from paper PMC5458555, “Conformational dynamics of dynamin-like MxA revealed by single-molecule FRET” (Nature Communications, 2017).
Changes are numbered by the printed parent chain.

Columns and labels:
MxA^MO2 [1] = biological target: T1, MxA^MO2 (Homo sapiens, UniProt P20591, A149C/C322K/C336Q/C42S/C52S/M527D/S634C); assay: isothermal titration calorimetry; format: binding; settings: read-out: equilibrium dissociation constant
T1 construct: gene MX1; monomeric full-length-type MxA (M527D) with solvent-exposed cysteines replaced; N-terminal His6-PreScission tag cut, E. coli Rosetta (DE3); SEC peak ~70 kDa
T1 sequence (P20591 1-662 C42S/C52S/A149C/C322K/C336Q/M527D/S634C): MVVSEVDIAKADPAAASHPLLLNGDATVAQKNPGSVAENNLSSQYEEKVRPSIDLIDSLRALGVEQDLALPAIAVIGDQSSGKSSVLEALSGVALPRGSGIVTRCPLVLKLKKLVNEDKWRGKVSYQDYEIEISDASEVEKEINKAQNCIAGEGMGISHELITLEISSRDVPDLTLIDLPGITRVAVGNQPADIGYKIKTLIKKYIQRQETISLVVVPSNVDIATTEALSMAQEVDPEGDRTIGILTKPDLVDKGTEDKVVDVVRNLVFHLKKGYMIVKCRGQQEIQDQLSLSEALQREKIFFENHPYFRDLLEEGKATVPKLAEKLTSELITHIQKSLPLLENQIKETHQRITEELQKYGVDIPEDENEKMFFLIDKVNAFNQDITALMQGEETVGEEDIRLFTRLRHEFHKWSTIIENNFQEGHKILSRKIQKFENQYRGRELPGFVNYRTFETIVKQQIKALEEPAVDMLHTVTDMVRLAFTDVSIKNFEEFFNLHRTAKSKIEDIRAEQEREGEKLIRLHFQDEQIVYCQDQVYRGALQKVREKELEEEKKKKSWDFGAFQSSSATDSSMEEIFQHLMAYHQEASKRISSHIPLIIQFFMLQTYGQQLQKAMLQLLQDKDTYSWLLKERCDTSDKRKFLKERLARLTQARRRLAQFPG
Experimental: (§1) isothermal titration calorimetry on MxA^MO2 | The equilibrium dissociation constants for MxA^MO2-AS and MxA^MO2-RR to GDP and GMPPCP were determined

MxA^MO2 [2] = biological target: T2, MxA^MO2 (Homo sapiens, UniProt P20591, C322K/C336Q/C42S/C52S/M527D/R352C/R500C); assay: isothermal titration calorimetry; format: binding; settings: read-out: equilibrium dissociation constant
T2 construct: gene MX1; monomeric full-length-type MxA (M527D) with solvent-exposed cysteines replaced; N-terminal His6-PreScission tag cut, E. coli Rosetta (DE3); SEC peak ~70 kDa
T2 sequence (P20591 1-662 C42S/C52S/C322K/C336Q/R352C/R500C/M527D): T1 sequence (P20591 1-662 C42S/C52S/A149C/C322K/C336Q/M527D/S634C) with C149A, R352C, R500C, C634S
Experimental: as §1

| Structure (SMILES) | Kd (MxA^MO2 [1]) | Kd (MxA^MO2 [2]) |
| --- | --- | --- |
| Nc1nc2c(ncn2[C@@H]2O[C@H](COP(=O)(O)OP(=O)(O)O)[C@@H](O)[C@H]2O)c(=O)[nH]1 [GDP] | 42.6 ± 0.14 µM | 26.3 ± 0.03 µM |
| Nc1nc(O)c2ncn([C@@H]3O[C@H](COP(=O)(O)OP(=O)(O)C[P+]([O-])(O)O)[C@@H](O)[C@H]3O)c2n1 [GMPPCP, guanosine-5′-[(β,γ)-methyleno]triphosphate] | 30 ± 0.003 µM | 14.7 ± 0.13 µM |
